Experimental data from patent US12275731B2, “Azaindole inhibitors of wild-type and mutant forms of LRRK2” (DANA-FARBER CANCER INSTITUTE, INC., priority 2018, dated 2025).

Assays:
Experiment in all cases: KinomeScan profiling
Type in all cases: binding
[1] = biological target: T1, RSK1(Kin.Dom.2-C-terminal) (Homo sapiens, UniProt Q15418); details: read-out: % control
T1 construct: RSK1(Kin.Dom.2-C-terminal)
How it was run: (§1)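 1 μM cpd in DMSO; 468-kinase panel; readout RLU. % ctrl = (cpd − pos ctrl)/(neg ctrl − pos ctrl) ×100. Pos ctrl = 0%, DMSO = 100%. Hit cut-off <35%.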

CDK5 = CDK5 (Homo sapiens, UniProt Q00535); details: CDK5, 1 μM; read-out: % control
How it was run: as §1

PAK1 = PAK1 (Homo sapiens, UniProt Q13153); details: PAK1, 1 μM; read-out: % control
How it was run: as §1

KIT-autoinhibited = biological target: T2, KIT-autoinhibited (Homo sapiens, UniProt P10721); details: read-out: % control
T2 construct: purchased KinomeScan®
How it was run: as §1

DLK = biological target: T3, DLK (Homo sapiens, UniProt Q12852); details: read-out: % control
T3 sequence (Q12852 1-859): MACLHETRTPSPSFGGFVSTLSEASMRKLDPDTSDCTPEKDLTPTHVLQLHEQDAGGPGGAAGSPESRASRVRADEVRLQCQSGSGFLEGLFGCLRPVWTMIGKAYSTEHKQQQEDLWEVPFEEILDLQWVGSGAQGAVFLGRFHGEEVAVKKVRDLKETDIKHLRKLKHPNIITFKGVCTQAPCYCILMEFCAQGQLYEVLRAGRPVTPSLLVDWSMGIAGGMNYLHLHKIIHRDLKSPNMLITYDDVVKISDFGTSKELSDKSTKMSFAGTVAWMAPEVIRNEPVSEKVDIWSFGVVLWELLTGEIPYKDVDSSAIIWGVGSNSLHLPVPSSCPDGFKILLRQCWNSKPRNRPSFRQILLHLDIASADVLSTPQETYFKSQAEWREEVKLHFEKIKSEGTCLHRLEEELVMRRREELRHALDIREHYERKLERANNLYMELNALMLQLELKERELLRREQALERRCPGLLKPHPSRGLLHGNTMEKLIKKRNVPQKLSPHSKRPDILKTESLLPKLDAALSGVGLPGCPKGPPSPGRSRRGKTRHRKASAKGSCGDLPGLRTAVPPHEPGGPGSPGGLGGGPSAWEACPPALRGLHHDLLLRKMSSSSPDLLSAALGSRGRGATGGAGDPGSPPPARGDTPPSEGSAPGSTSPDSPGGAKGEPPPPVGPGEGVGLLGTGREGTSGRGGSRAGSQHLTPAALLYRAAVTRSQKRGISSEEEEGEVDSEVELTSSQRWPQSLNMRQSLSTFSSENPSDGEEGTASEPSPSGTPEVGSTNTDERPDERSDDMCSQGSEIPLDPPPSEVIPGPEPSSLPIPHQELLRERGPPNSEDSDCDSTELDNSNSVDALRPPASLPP
How it was run: as §1

MARK3 = MARK3 (Homo sapiens, UniProt P27448); details: MARK3, 1 μM; read-out: % control
How it was run: as §1

ERBB3 = ERBB3 (Homo sapiens, UniProt P21860); details: ERBB3, 1 μM; read-out: % control
How it was run: as §1

CAMKK2 = CAMKK2 (Homo sapiens, UniProt Q96RR4); details: CAMKK2, 1 μM; read-out: % control
How it was run: as §1

TSSK3 = biological target: T4, TSSK3 (Homo sapiens, UniProt Q96PN8); details: TSSK3, 1 μM; read-out: % control
T4 sequence (Q96PN8 1-268): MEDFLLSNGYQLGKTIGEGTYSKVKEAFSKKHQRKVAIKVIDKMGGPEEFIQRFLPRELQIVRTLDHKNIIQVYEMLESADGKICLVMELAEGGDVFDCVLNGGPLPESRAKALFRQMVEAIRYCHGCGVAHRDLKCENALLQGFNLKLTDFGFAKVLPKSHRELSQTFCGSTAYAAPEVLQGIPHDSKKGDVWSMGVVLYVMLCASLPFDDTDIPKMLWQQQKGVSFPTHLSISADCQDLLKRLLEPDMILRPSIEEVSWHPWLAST
How it was run: as §1

MYLK = MYLK (Homo sapiens, UniProt Q15746); details: read-out: % control
How it was run: as §1

PIK3CA(M1043I) = biological target: T5, PIK3CA(M1043I) (Homo sapiens, UniProt P42336, M1043I); details: read-out: % control
T5 construct: purchased KinomeScan® (panel service)
How it was run: as §1

PCTK3 = PCTK3 (Homo sapiens, UniProt Q07002); details: PCTK3, 1 μM; read-out: % control
How it was run: as §1

AMPK-alpha1 = biological target: T6, AMPK-alpha1 (Homo sapiens, UniProt Q13131); details: AMPK-alpha1, 1 μM; read-out: % control
T6 construct: purchased KinomeScan®
How it was run: as §1

PCTK2 = PCTK2 (Homo sapiens, UniProt Q00537); details: PCTK2, 1 μM; read-out: % control
How it was run: as §1

DMPK2 = DMPK2 (Homo sapiens, UniProt Q6DT37); details: DMPK2, 1 μM; read-out: % control
How it was run: as §1

YANK3 = YANK3 (Homo sapiens, UniProt Q86UX6); details: YANK3, 1 μM; read-out: % control
How it was run: as §1

T5 sequence (P42336 whole entry M1043I): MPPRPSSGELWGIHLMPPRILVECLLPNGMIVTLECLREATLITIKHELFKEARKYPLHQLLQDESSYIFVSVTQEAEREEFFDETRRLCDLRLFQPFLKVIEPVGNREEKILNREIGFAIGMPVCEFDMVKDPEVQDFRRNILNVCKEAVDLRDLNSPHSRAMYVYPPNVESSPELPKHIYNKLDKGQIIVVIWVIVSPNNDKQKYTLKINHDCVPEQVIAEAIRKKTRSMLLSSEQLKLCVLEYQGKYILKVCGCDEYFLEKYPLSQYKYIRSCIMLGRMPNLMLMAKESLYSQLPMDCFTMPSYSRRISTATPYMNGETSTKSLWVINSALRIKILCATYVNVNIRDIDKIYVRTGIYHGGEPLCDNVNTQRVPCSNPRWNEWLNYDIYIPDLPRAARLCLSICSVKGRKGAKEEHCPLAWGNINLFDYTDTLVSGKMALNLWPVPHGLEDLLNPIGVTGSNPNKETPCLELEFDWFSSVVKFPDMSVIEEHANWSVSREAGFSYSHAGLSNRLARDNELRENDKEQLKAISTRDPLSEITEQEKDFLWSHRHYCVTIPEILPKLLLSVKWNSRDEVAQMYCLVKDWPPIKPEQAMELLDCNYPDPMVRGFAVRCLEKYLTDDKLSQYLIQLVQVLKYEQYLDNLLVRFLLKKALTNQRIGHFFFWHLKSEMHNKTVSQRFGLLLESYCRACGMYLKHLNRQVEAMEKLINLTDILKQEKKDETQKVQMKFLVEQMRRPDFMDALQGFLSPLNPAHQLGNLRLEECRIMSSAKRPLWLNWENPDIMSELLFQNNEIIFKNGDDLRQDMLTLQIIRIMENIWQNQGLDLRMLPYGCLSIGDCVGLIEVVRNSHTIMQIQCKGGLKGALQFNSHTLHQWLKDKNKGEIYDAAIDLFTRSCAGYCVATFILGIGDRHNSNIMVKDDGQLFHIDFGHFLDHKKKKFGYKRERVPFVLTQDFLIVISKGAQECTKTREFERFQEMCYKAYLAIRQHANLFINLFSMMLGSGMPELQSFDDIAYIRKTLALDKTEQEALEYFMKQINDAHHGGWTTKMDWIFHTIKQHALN
Chain of YANK3 (Q86UX6 whole entry): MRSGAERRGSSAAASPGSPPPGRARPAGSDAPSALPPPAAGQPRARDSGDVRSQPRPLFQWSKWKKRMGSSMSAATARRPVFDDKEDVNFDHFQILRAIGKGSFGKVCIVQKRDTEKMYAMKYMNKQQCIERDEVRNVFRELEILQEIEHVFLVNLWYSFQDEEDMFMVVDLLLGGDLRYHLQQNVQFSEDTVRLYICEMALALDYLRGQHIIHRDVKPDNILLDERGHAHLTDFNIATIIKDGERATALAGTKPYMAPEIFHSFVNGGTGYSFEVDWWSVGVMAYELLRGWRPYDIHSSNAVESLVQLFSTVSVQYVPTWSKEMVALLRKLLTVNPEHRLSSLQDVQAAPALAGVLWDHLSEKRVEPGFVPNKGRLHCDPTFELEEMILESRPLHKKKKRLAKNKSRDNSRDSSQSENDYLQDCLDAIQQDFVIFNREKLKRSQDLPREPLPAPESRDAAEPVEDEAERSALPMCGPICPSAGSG
Chain of PCTK2 (Q00537 whole entry): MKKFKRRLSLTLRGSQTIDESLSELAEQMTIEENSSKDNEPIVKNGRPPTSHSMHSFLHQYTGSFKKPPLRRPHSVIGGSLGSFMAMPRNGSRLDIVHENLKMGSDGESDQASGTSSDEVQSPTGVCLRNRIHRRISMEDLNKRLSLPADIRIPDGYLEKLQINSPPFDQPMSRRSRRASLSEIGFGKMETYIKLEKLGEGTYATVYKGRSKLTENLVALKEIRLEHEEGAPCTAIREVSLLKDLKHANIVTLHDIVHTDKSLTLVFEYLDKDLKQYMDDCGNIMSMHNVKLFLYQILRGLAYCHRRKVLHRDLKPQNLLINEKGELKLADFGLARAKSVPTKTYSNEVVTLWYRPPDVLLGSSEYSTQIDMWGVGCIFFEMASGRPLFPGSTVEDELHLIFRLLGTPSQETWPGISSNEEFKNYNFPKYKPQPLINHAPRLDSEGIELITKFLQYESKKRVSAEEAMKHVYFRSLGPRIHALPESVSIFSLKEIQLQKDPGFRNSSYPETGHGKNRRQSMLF
Chain of PCTK3 (Q07002 whole entry): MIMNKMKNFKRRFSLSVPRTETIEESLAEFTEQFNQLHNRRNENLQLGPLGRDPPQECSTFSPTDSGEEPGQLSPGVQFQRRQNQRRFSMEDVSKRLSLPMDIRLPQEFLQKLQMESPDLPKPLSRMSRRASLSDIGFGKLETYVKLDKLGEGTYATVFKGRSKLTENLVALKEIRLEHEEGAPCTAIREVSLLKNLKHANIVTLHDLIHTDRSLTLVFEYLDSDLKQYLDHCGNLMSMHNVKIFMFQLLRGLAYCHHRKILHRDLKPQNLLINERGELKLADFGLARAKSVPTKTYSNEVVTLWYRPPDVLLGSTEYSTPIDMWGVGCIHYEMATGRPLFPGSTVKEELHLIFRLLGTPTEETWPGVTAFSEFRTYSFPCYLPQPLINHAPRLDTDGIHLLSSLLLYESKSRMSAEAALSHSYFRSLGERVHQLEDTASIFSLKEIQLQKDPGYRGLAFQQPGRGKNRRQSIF
T1 sequence (Q15418 418-675 limits assumed): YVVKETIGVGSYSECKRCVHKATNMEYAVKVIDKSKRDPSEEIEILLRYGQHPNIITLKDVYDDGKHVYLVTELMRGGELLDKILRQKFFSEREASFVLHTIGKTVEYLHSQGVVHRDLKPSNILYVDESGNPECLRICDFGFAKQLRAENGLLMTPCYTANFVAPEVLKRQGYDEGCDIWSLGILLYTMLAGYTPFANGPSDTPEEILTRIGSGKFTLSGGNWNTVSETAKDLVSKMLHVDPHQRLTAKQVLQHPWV
Chain of CAMKK2 (Q96RR4 whole entry): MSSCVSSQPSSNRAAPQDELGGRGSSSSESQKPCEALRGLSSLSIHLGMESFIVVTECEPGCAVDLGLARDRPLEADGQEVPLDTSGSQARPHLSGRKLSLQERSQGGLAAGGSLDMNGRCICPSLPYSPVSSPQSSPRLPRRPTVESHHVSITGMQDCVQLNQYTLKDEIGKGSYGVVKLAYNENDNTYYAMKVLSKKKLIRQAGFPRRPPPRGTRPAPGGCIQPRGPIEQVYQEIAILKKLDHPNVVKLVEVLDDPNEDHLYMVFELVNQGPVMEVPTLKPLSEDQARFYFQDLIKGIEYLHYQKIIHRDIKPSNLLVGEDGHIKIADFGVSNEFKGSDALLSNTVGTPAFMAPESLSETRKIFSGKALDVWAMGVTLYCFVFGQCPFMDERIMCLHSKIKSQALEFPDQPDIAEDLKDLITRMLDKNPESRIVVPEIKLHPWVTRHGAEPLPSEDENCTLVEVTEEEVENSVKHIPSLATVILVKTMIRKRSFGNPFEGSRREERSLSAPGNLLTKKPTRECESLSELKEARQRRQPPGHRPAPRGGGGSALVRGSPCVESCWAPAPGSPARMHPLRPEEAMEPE
Chain of CDK5 (Q00535 whole entry): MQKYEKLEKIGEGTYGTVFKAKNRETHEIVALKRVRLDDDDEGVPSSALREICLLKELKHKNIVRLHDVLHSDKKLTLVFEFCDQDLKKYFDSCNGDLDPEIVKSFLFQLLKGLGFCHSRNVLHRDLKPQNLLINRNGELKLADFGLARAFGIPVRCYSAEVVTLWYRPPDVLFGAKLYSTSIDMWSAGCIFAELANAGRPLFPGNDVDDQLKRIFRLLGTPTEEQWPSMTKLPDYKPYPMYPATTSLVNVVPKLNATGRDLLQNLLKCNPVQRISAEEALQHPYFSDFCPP
T2 sequence (P10721 544-976 limits assumed): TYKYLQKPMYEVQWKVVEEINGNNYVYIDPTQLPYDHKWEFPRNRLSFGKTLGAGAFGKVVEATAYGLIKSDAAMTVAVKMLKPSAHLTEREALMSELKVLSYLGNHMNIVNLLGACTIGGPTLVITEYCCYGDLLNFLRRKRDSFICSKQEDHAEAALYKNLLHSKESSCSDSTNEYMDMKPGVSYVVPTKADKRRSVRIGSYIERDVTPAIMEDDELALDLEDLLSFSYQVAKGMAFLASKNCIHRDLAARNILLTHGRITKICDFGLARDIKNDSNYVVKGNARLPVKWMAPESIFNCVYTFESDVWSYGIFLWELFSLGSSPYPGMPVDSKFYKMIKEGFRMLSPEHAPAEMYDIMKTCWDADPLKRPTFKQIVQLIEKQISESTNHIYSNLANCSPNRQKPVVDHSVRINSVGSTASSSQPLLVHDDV
Chain of PAK1 (Q13153 whole entry): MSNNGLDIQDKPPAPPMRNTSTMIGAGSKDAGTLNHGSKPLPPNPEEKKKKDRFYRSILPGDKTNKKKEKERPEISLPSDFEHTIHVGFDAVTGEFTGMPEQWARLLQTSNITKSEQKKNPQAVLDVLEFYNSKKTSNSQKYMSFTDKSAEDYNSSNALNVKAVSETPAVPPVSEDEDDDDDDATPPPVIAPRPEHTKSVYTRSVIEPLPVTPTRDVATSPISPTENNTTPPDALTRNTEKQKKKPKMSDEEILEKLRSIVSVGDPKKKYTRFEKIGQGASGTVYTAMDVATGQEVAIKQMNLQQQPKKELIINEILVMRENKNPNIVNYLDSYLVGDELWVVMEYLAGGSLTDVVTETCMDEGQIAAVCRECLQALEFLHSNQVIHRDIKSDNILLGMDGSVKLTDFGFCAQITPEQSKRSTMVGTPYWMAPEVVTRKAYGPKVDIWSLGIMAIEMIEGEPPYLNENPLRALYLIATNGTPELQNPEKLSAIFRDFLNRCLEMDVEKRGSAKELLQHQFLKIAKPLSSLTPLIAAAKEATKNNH

| SMILES | remaining binding at 1 µM [1] [%] | remaining binding at 1 µM (CDK5) [%] | remaining binding at 1 µM (PAK1) [%] | remaining binding at 1 µM (KIT-autoinhibited) [%] | remaining binding at 1 µM (DLK) [%] | remaining binding at 1 µM (MARK3) [%] | remaining binding at 1 µM (ERBB3) [%] | remaining binding at 1 µM (CAMKK2) [%] | remaining binding at 1 µM (TSSK3) [%] | remaining binding at 1 µM (MYLK) [%] | remaining binding at 1 µM (PIK3CA(M1043I)) [%] | remaining binding at 1 µM (PCTK3) [%] | remaining binding at 1 µM (AMPK-alpha1) [%] | remaining binding at 1 µM (PCTK2) [%] | remaining binding at 1 µM (DMPK2) [%] | remaining binding at 1 µM (YANK3) [%] |
| --- | --- | --- | --- | --- | --- | --- | --- | --- | --- | --- | --- | --- | --- | --- | --- | --- |
| CNc1c(-c2cnn([C@H]3CCN(C(C)=O)C[C@@H]3F)c2)cnc2[nH]cc(Cl)c12 [Compound 77, 1-((3S,4S)-4-(4-(3-chloro-4-(methylamino)-1H-pyrrolo[2,3-b]pyridin-5-yl)-1H-pyrazol-1-yl)-3-fluoropiperidin-1-yl)ethan-1-one] | 99 | 91 | 99 | 23 | 14 | 82 | 88 | 79 | 65 | 72 | 66 | 100 | 100 | 100 | 80 | 97 |
| O=C(c1ccc(-c2cnc3[nH]cc(Cl)c3c2NC2CCCC2)cc1)N1CCC(N2CCOCC2)CC1 [Compound 101, (4-(3-chloro-4-(cyclopentylamino)-1H-pyrrolo[2,3-b]pyridin-5-yl)phenyl)(4-morpholinopiperidin-1-yl)methanone] | 88 | 94 | 100 | 100 | 65 | 89 | 55 | 88 | 98 | 83 | 100 | 96 | 78 | 96 | 100 | 57 |
| CNc1c(-c2ccc(C(=O)N3CCC(N4CCOCC4)CC3)cc2)cnc2[nH]cc(Cl)c12 [Compound 96, (4-(3-chloro-4-(methylamino)-1H-pyrrolo[2,3-b]pyridin-5-yl)phenyl)(4-morpholinopiperidin-1-yl)methanone] | 100 | 97 | 99 | 64 | 24 | 84 | 86 | 82 | 45 | 85 | 81 | 100 | 75 | 97 | 91 | 99 |
